Data published in patent US7812022B2 (GlaxoSmithKline LLC, priority 2004, dated 2010).

Assays:
ErbB2 or EGFR = molecular target: T1, ErbB2 or EGFR; test: ErbB family substrate phosphorylation enzyme assay (HTRF), Method A or Method B; type: biochemical; conditions: Method B: enzyme mix pre-incubated with compound 1 hour at 20° C., started with substrate mix
T1 construct: enzymes purified from a baculovirus expression system; Reagent production was conducted essentially as described in Brignola, P. S., et al, (2002) J. Biol. Chem. 277(2): 1576-1585
How it was run: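 Baculovirus-expressed EGFR or ErbB2 (0.8 or 10 nM in enzyme mix) phosphorylates biotinylated Peptide C with 20 µM ATP and 0.8 µM peptide (substrate-mix levels), MnCl2, pH 7.5. Reaction ran 90 min at 20 °C with EDTA stop and HTRF anti-phosphotyrosine read. Method A: enzyme added last; Method B: 1 h enzyme–compound preincubation.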

Colo205 tumor cell lines = test: Celltiter Glo growth inhibition assay (cellular Method B), Colo205; type: cell-based; conditions: Homo sapiens, COLO 205, 72 h, 3 days, read-out: Activity (Method): growth inhibition IC50 class
Method: (§1) Human breast tumor cells (BT474) were cultured in RPMI, (Invitrogen, 22400) containing 10% fetal bovine serum (FBS). Human head and neck tumor cells (HN5) were cultured in low glucose DMEM (Invitrogen, 12320) containing 10% FBS. Human colon tumor cells (Colo205) were cultured in DMEM (Invitrogen, 10564) containing 10% FBS. All cell lines were maintained at 37° C. in a humidified 5% CO2, 95% air incubator. Cells were harvested using trypsin/EDTA, counted using a haemocytometer, and plated in 30 microliters of the appropriate media described above, at the following densities, in a half area, black-walled, 96-well tissue culture plate (Corning 3882): BT474 3,000 cells/well, HN5 500 cells/well and Colo205 cells, 3,000 cells/well. The next day, compounds were diluted in DMEM containing […] gentamicin, from 10 mM stock solutions in DMSO. 30 microliters/well of these dilutions were added to the 30 microliters/well of media currently on the cell plates. Medium containing 0.6% DMSO was added to control wells. The final concentration of DMSO in all wells was 0.3%. Cells were incubated at 37° C., 5% CO2 for 3 days. Cell biomass was estimated using Celltiter Glo (Promega G7571). Briefly, plates were removed from the incubator and allowed to equilibrate to rt for 30 minutes. 60 microliters of Celltiter Glo reagent were added to each well of the treated cells and plates were shaken on an orbital plate shaker for 2 min. Plates were incubated without shaking for 30 more min and read in a luminometer with an integration time of 0.5 seconds per well. Percent inhibition of cell growth was calculated relative to vehicle treated control wells. Concentration of compound that inhibits 50% of vehicle control cell growth (IC50) was interpolated using nonlinear regression (Levenberg-Marquardt) and the equation, y=Vmax*(1−(x/(K+x)))+Y2, where “K” was equal to the IC50.

[1] = test system: BT474 and HN5 tumor cell lines; test: Celltiter Glo growth inhibition assay (cellular Method B); type: cell-based; conditions: Homo sapiens, BT-474, 72 h, 3 days, read-out: Activity (Method): growth inhibition IC50 class
Method: as §1

`O=C(Nc1cccc(-c2nn3cc(C(F)(F)F)ccc3c2-c2ccnc(Nc3cccc(F)c3)n2)c1)c1c(F)cccc1F` [Example 191, 2,6-Difluoro-N-{3-[3-{2-[(3-fluorophenyl)amino]-4-pyrimidinyl}-6-(trifluoromethyl)pyrazolo[1,5-a]pyridin-2-yl]phenyl}benzamide] was tested, and the “Activity (Method): pIC50 class against ErbB2 or EGFR” value (from here on “Activity (Method): pIC50 class”) (ErbB2 or EGFR) was “++ (B) (at least one pIC50 measurement greater than 6 against either ErbB2 or EGFR but no measurement greater than pIC50 of 7)”, the IC50 (Colo205 tumor cell lines) was over 1000 nM and the IC50 [1] was over 1000 nM.

For `Cc1ccc(F)c(C(=O)Nc2cccc(-c3nn4ccccc4c3-c3ccnc(Nc4ccc(OCCN(C)C)c(Cl)c4)n3)c2)c1F.O=C(O)C(F)(F)F` [Example 186, N-[3-(3-{2-[(3-chloro-4-{[2-(dimethylamino)ethyl]oxy}phenyl)-amino]-4-pyrimidinyl}pyrazolo[1,5-a]pyridin-2-yl)phenyl]-2,6-difluoro-3-methylbenzamide-TFA], the “Activity (Method): pIC50 class” value (ErbB2 or EGFR) was “+++ (B) (at least one pIC50 measurement of greater than 7 against either ErbB2 or EGFR)”, the IC50 (Colo205 tumor cell lines) was over 1000 nM and the IC50 [1] was under 100 nM.

For `CNCc1cccc(Nc2nccc(-c3c(-c4cccc(NC(=O)c5c(F)cccc5F)c4)nn4ccccc34)n2)c1` [Example 183, 2,6-Difluoro-N-(3-{3-[2-({3-[(methylamino)methyl]phenyl}amino)-4-pyrimidinyl]pyrazolo[1,5-a]pyridin-2-yl}phenyl)benzamide], the “Activity (Method): pIC50 class” value (ErbB2 or EGFR) was “+++ (B) (at least one pIC50 measurement of greater than 7 against either ErbB2 or EGFR)”, the IC50 (Colo205 tumor cell lines) was over 1000 nM and the IC50 [1] was under 100 nM.

For `NCc1cccc(Nc2nccc(-c3c(-c4cccc(NC(=O)c5cc(F)ccc5F)c4)nn4ccccc34)n2)c1` [Example 184, N-{3-[3-(2-{[3-(Aminomethyl)phenyl]amino}-4-pyrimidinyl)pyrazolo[1,5-a]pyridin-2-yl]phenyl}-2,5-difluorobenzamide], the “Activity (Method): pIC50 class” value (ErbB2 or EGFR) was “+++ B) (at least one pIC50 measurement of greater than 7 against either ErbB2 or EGFR)”, the IC50 (Colo205 tumor cell lines) was over 1000 nM and the IC50 [1] was under 100 nM.

For `O=C(Nc1cccc(-c2nn3ccccc3c2-c2nc(Nc3cccc(F)c3)ncc2F)c1)c1c(F)cccc1F` [Example 202, 2,6-difluoro-N-[3-(3-{5-fluoro-2-[(3-fluorophenyl)amino]-4-pyrimidinyl}pyrazolo[1,5-a]pyridin-2-yl)phenyl]benzamide], the “Activity (Method): pIC50 class” value (ErbB2 or EGFR) was “++ (B) (at least one pIC50 measurement greater than 6 against either ErbB2 or EGFR but no measurement greater than pIC50 of 7)”, the IC50 (Colo205 tumor cell lines) was over 1000 nM and the IC50 [1] was 100 to 1000 nM.

`O=C(Nc1cccc(-c2nn3cccc(F)c3c2-c2ccnc(Nc3cccc(CN4CCCC4)c3)n2)c1)c1c(F)cccc1F` [Example 170, 2,6-Difluoro-N-{3-[4-fluoro-3-(2-{[3-(1-pyrrolidinylmethyl)-phenyl]amino}-4-pyrimidinyl)pyrazolo[1,5-a]pyridin-2-yl]phenyl}benzamide] was tested, and the “Activity (Method): pIC50 class” value (ErbB2 or EGFR) was “+++ (B) (at least one pIC50 measurement of greater than 7 against either ErbB2 or EGFR)”, the IC50 (Colo205 tumor cell lines) was over 1000 nM and the IC50 [1] was 100 to 1000 nM.

For `CN(C)CCOc1cccc(Nc2nccc(-c3c(-c4cccc(NC(=O)c5c(F)cccc5F)c4)nn4cc(F)ccc34)n2)c1` [Example 171, N-[3-(3-{2-[(3-{[2-(Dimethylamino)ethyl]oxy}phenyl)amino]-4-pyrimidinyl}-6-fluoropyrazolo[1,5-a]pyridin-2-yl)phenyl]-2,6-difluorobenzamide], the “Activity (Method): pIC50 class” value (ErbB2 or EGFR) was “+++ (B) (at least one pIC50 measurement of greater than 7 against either ErbB2 or EGFR)”, the IC50 (Colo205 tumor cell lines) was over 1000 nM and the IC50 [1] was under 100 nM.
